Reference: PubChem BioAssay (NCI)
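Dose response: 5 concentrations. Exposure: 48 h. Format: 96-well plates. Endpoint: linear interpolation; highest concentration if not reached. At the GI50, growth is halved. TGI: concentration producing complete growth inhibition.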

Experiments:
Experiment in all cases: DTP human tumour cell line panel, 48 h
[1] = tested on: SK-MEL-2 melanoma
[2] = tested on: SK-OV-3 ovarian
[3] = tested on: MOLT-4 leukemia
[4] = tested on: MDA-MB-231 breast
[5] = tested on: UO-31 renal
[6] = tested on: COLO 205 colon
[7] = tested on: SK-MEL-28 melanoma
[8] = tested on: SNB-75 CNS
[9] = tested on: NCI-H460 lung
[10] = tested on: NCI-H23 lung
[11] = tested on: CAKI-1 renal
[12] = tested on: HCT-116 colon
[13] = tested on: UACC-62 melanoma
[14] = tested on: PC-3 prostate
[15] = tested on: SW-620 colon
[16] = tested on: HCC-2998 colon
[17] = tested on: U251 CNS
[18] = tested on: SK-MEL-5 melanoma
[19] = tested on: OVCAR-8 ovarian
[20] = tested on: SR leukemia
[21] = tested on: UACC-257 melanoma
[22] = tested on: T-47D breast
[23] = tested on: HL-60(TB) leukemia
[24] = tested on: A549 NSCLC
[25] = tested on: OVCAR-3 ovarian
[26] = tested on: MALME-3M melanoma
[27] = tested on: SF-539 CNS
[28] = tested on: OVCAR-4 ovarian
[29] = tested on: RPMI-8226 leukemia
[30] = tested on: NCI-H522 lung
[31] = tested on: SNB-19 CNS
[32] = tested on: MCF7 breast
[33] = tested on: KM12 colon
[34] = tested on: BT-549 breast
[35] = tested on: SF-268 CNS
[36] = tested on: K-562 leukemia
[37] = tested on: NCI-H226 lung
[38] = tested on: SN12C renal
[39] = tested on: OVCAR-5 ovarian
[40] = tested on: ACHN renal
[41] = tested on: SF-295 CNS
[42] = tested on: IGROV1 ovarian
[43] = tested on: HOP-92 NSCLC
[44] = tested on: HT29 colon
[45] = tested on: A498 renal
[46] = tested on: 786-0 renal
[47] = tested on: RXF 393 renal
[48] = tested on: TK-10 renal
[49] = tested on: HS 578T breast
[50] = tested on: HOP-62 NSCLC
[51] = tested on: LOX IMVI melanoma
[52] = tested on: HCT-15 colon
[53] = tested on: EKVX NSCLC
[54] = tested on: DU-145 prostate
[55] = tested on: MDA-MB-435
[56] = tested on: M14 melanoma

## CC(C)(O)c1coc(S(=O)(=O)/N=C(\O)Nc2c3c(cc4c2CCC4)CCC3)c1
[1]
  GI50: > 100 µM
  TGI: > 100 µM
[2]
  GI50: > 100 µM
  TGI: > 100 µM
[3]
  GI50: > 100 µM
  TGI: > 100 µM
[4]
  GI50: > 100 µM
  TGI: > 100 µM
[5]
  GI50: > 100 µM
  TGI: > 100 µM
[6]
  GI50: > 100 µM
  TGI: > 100 µM
[7]
  GI50: > 100 µM
  TGI: > 100 µM
[8]
  GI50: > 100 µM
  TGI: > 100 µM
[9]
  GI50: > 100 µM
  TGI: > 100 µM
[10]
  GI50: > 100 µM
  TGI: > 100 µM
[11]
  GI50: > 100 µM
  TGI: > 100 µM
[12]
  GI50: > 100 µM
  TGI: > 100 µM
[13]
  GI50: > 100 µM
  TGI: > 100 µM
[14]
  GI50: > 100 µM
  TGI: > 100 µM
[15]
  GI50: > 100 µM
  TGI: > 100 µM
[16]
  GI50: > 100 µM
  TGI: > 100 µM
[17]
  GI50: > 100 µM
  TGI: > 100 µM
[18]
  GI50: > 100 µM
  TGI: > 100 µM
[19]
  GI50: > 100 µM
  TGI: > 100 µM
[20]
  GI50: > 100 µM
  TGI: > 100 µM
[21]
  GI50: > 100 µM
  TGI: > 100 µM
[22]
  GI50: > 100 µM
  TGI: > 100 µM
[23]
  GI50: > 100 µM
  TGI: > 100 µM
[24]
  GI50: > 100 µM
  TGI: > 100 µM
[25]
  GI50: > 100 µM
  TGI: > 100 µM
[26]
  GI50: > 100 µM
  TGI: > 100 µM
[27]
  GI50: > 100 µM
  TGI: > 100 µM
[28]
  GI50: > 100 µM
  TGI: > 100 µM
[29]
  GI50: > 100 µM
  TGI: > 100 µM
[30]
  GI50: > 100 µM
  TGI: > 100 µM
[31]
  GI50: > 100 µM
  TGI: > 100 µM
[32]
  GI50: > 100 µM
  TGI: > 100 µM
[33]
  GI50: > 100 µM
  TGI: > 100 µM
[34]
  GI50: > 100 µM
  TGI: > 100 µM
[35]
  GI50: > 100 µM
  TGI: > 100 µM
[36]
  GI50: > 100 µM
  TGI: > 100 µM
[37]
  GI50: > 100 µM
  TGI: > 100 µM
[38]
  GI50: > 100 µM
  TGI: > 100 µM
[39]
  GI50: > 100 µM
  TGI: > 100 µM
[40]
  GI50: > 100 µM
  TGI: > 100 µM
[41]
  GI50: > 100 µM
  TGI: > 100 µM
[42]
  GI50: > 100 µM
  TGI: > 100 µM
[43]
  GI50: 91.9 µM
  TGI: > 100 µM
[44]
  GI50: > 100 µM
  TGI: > 100 µM
[45]
  GI50: > 100 µM
  TGI: > 100 µM
[46]
  GI50: > 100 µM
  TGI: > 100 µM
[47]
  GI50: > 100 µM
  TGI: > 100 µM
[48]
  GI50: > 100 µM
  TGI: > 100 µM
[49]
  GI50: > 100 µM
  TGI: > 100 µM
[50]
  GI50: > 100 µM
  TGI: > 100 µM
[51]
  GI50: > 100 µM
  TGI: > 100 µM
[52]
  GI50: > 100 µM
  TGI: > 100 µM
[53]
  GI50: > 100 µM
  TGI: > 100 µM
[54]
  GI50: > 100 µM
  TGI: > 100 µM
[55]
  GI50: > 100 µM
  TGI: > 100 µM
[56]
  GI50: > 100 µM
  TGI: > 100 µM
